Values of other authors as cited in US12187744B2, “IRAK4 degraders and synthesis thereof” (Kymera Therapeutics, Inc., priority 2021, dated 2025).

Key:
[1] = per ICH M7(R1) guidance
[2] = in vivo

SMILES | ICH M7(R1) Class [1] | results in rodent carcinogenicity assays [2]
CC(C)Cl [Isopropyl chloride] | 2 | –
CI [Methyl iodide] | – | positive
